{"source": "patent US20050032124A1", "about": "“Identification of genotype-selective agents for treating Huntington's disease” (priority 2003, published 2005)", "key": {"[1]": {"test_system": "PC12 cells expressing Htt-Q103", "assay": "PC12 Htt-Q103 toxicity assay, Alamar Blue viability", "format": "cell-based, rat", "parameters": "rescue of Htt-Q103 toxicity: dose or concentration left out as unconfirmed", "source_text": "In the first cell system, Applicants developed, in collaboration with Dr. Erik Schweitzer (UCLA), a high-throughput screen (HTS) for compounds that rescue polyQ-induced apoptosis in immortalized rat neuronal cells (Suhr S T, et al., Proc Natl Acad Sci U S A 1998, 95: 7999-8004). PC12 rat pheochromocytoma cells were transfected with exon-1 of the human huntingtin gene containing either 25 or 103 N-terminal polyQ repeats. For enhanced stability the repeat portion consists of alternating CAG/CAA repeats (FIG. 11A). In addition, the expression construct incorporates enhanced green fluorescent protein (EGFP) as a reporter that enables tracking of the fusion proteins by direct immunofluorescence microscopy or biochemical (immunoprecipitation or Western blotting) detection with anti-EGFP antibodies (Schweitzer E S, et al., submitted). Finally, expression is regulated using the Bombyx mori ecdysone receptor and ecdysone analog, tebufenozide (Suhr S T, et al., Proc Natl Acad Sci U S A 1998, 95: 7999-8004). […]\nThe high-throughput screen developed by Applicants using the PC12 cell system uses the fluorescent viability dye Alamar Blue™ (FIG. 11B). […] The Z-factor is a commonly used quantitative index for maximal signal separation and minimal variability. […]"}, "[2]": {"test_system": "BJ primary cells", "assay": "Sensitization of primary cells by co-treatment, calcein AM viability staining", "format": "cell-based, human", "details": "for effect on calcein AM viability staining, alone: BJ primary cells", "source_text": "(A-C) Western blot of lysates from BJ, BJ-TERT, BJ-TERT/LT/ST, BJ-TERT/LT/ST/RAS^V12, BJ-TERT/LT/RAS^V12 and BJ-TERT/LT/RAS^V12/ST cells with an antibody directed against topoisomerase II (A) or TOPI (B, C). In panel (C), cells were transfected with an siRNA directed against TOPI, lamic A/C or with a control double strand DNA duplex of the same length (TOPI dsDNA). In each case, the blot was probed with an antibody against eIF-4E to identify differences in the amount of protein loaded. The relative amount is quantitated below each band. […] Cell number was determined after transfection with an siRNA directed against TOPI and treatment with the indicated concentrations of camptothecin. (E) Okadaic acid, an inhibitor of PP2A and other cellular phosphatases, sensitizes primary human cells to camptothecin. BJ primary cells were treated simultaneously with the indicated concentrations of both camptothecin and okadaic acid and the effect on calcein AM viability staining was determined. […] BJ primary cells were treated with the indicated concentrations of okadaic acid and the expression level of TOPI was determined by western blot. The relative amount is quantitated below each band.\nThe compounds in group (iii) are camptothecin (CPT) and a novel compound from a combinatorial library, which Applicants have named erastin, for eradicator of RAS and ST-expressing cells (FIG. 2). Efficient CPT-induced and erastin-induced cell death requires the presence of both ST and RAS^V12 (FIGS. 3 and 4 and Table 1). Although CPT and erastin have a similar genetic basis of selectivity, they have distinct mechanisms of action. […] The phosphatase inhibitor okadaic acid was capable of sensitizing otherwise resistant BJ primary cells to CPT (FIG. 5E), possibly because okadaic acid upregulates TOPI (FIG. 5F)."}, "[3]": {"test_system": "topoisomerase I (TOPI)", "assay": "Western blot for TOPI expression", "format": "cell-based, human", "details": "BJ primary cells", "source_text": "(A-C) Western blot of lysates from BJ, BJ-TERT, BJ-TERT/LT/ST, BJ-TERT/LT/ST/RAS^V12, BJ-TERT/LT/RAS^V12 and BJ-TERT/LT/RAS^V12/ST cells with an antibody directed against topoisomerase II (A) or TOPI (B, C). In panel (C), cells were transfected with an siRNA directed against TOPI, lamic A/C or with a control double strand DNA duplex of the same length (TOPI dsDNA). In each case, the blot was probed with an antibody against eIF-4E to identify differences in the amount of protein loaded. The relative amount is quantitated below each band. […] Cell number was determined after transfection with an siRNA directed against TOPI and treatment with the indicated concentrations of camptothecin. (E) Okadaic acid, an inhibitor of PP2A and other cellular phosphatases, sensitizes primary human cells to camptothecin. BJ primary cells were treated simultaneously with the indicated concentrations of both camptothecin and okadaic acid and the effect on calcein AM viability staining was determined. […] BJ primary cells were treated with the indicated concentrations of okadaic acid and the expression level of TOPI was determined by western blot. The relative amount is quantitated below each band. […]"}, "[4]": {"test_system": "BJELR cells (BJ-TERT/LT/ST/RAS^V12)", "assay": "Screen of ACL library for suppressors of erastin activity (calcein AM)", "format": "cell-based, human", "details": "4 μg/ml compound, 5 μg/ml erastin", "method": "ACL library comprises 1,540 compounds and all compounds were prepared in DMSO at […] in 384-well polypropylene plates and stored at −20° C. Replica daughter plates for each library plate were prepared using Zymark Scilone ALH. The daughter plates were diluted 50 fold in DMEM and compound concentration in the daughter plate is 80 μg/ml with 2% DMSO. In assay plate compound from the daughter plate is diluted 20 fold with cell suspension, thus final concentration of each compound is 4 μg/ml.\nBJELR cells were seeded at 6000 cells/well (57μl) (for co-treatment screen) and 5000 cells/well (57 μl) (for pretreatment screen) in 384-well black, clear bottom plates using syringe bulk dispenser. For co-treatment suppressor screen, cells were treated with 3 μl of compound from the daughter plates of ACL library (final concentration in assay plate at 4 μg/ml) and at the same time treated with 5 μg/ml of erastin. Compound transfer was done using 384 fixed cannula head. Plates were incubated for 48 hours at 37° C. in incubator with 5% CO2. For the pretreatment screens, cells were pre-incubated with the compound from ACL daughter library plate for overnight and then treated with 5 μg/ml of erastin for further 48 hours. […] Fluorescence intensity was determined using Fusion platereader with filters centered in an excitation of 485 nm and emission of 535 nm. […]"}, "[5]": {"test_system": "BJELR cells (BJ-TERT/LT/ST/RAS^V12) versus BJEH cells (BJ-TERT)", "assay": "Erastin analogs: activity and selectivity in tumor cells versus normal cells", "format": "cell-based, human", "source_text": "Applicants additionally tested 135 analogs of erastin for activity and selectivity in tumor cells versus normal cells. […] This compound was named erastin B (see FIG. 8). […] BJELR cells are BJ-TERT/LT/ST/RAS^V12 cells, and BJEH are BJ-TERT cells."}}}
{"compound": "COC(=O)CC(NC(=O)OC(C)(C)C)C(=O)CF", "note": "[BOC-D-FMK, Boc-Asp(Ome)-fluoromethyl ketone]", "values": [{"measurement": "rescue of the Htt-Q103-induced cytotoxicity", "setting": "[1]; 50 μM, added at the time of tebufenozide induction", "value": "≥ 100", "unit": "%"}, {"measurement": "rescue of Htt-Q103 toxicity", "setting": "[1]; 72 hour induction with tebufenozide", "value": "rescues Htt-Q103 toxicity"}]}
{"compound": "C=C1[C@@H](O)[C@@H]2O[C@]3(CC[C@H](/C=C/[C@@H](C)[C@@H]4CC(C)=C[C@@]5(O[C@H](C[C@@](C)(O)C(=O)O)CC[C@H]5O)O4)O3)CC[C@H]2O[C@@H]1[C@@H](O)C[C@H](C)[C@H]1O[C@@]2(CCCCO2)CC[C@H]1C", "note": "[okadaic acid]", "values": [{"measurement": "sensitization of cells to camptothecin", "setting": "[2]; BJ (or BJ-TERT) cells, simultaneous treatment", "value": "renders BJ cells sensitive to camptothecin"}, {"measurement": "sensitization of cells to erastin", "setting": "[2]; BJ or BJ-TERT cells", "value": "does not render BJ or BJ-TERT cells sensitive to erastin"}, {"measurement": "effect on calcein AM viability staining, alone", "setting": "[2]; 3.4 nM", "value": "no effect on its own"}, {"measurement": "effect on calcein AM viability staining, alone", "setting": "[2]; highest concentrations tested", "value": "kills BJ cells"}, {"measurement": "expression of TOPI (western blot)", "setting": "[3]", "value": "stimulates expression of TOPI"}]}
{"compound": "Cc1c(C)c2c(c(C)c1O)CC[C@@](C)(CCC[C@H](C)CCC[C@H](C)CCCC(C)C)O2", "note": "[α-tocopherol]", "values": [{"measurement": "suppression of erastin activity", "setting": "[4]", "value": "suppress erastin activity"}]}
{"compound": "erastin B", "values": [{"measurement": "activity and selectivity in tumor cells versus normal cells", "setting": "[5]", "value": "active and selective, but less potent than erastin"}]}
